Measured values taken from EP3057951B1, “METHYLENE LINKED QUINOLINYL MODULATORS OF ROR-GAMMA-T” (Janssen Pharmaceutica NV, priority 2013, dated 2015).
Where “and” joins values, the source holds several entries; their conditions need not be identical. Identical values can stand only once. Counter-ions that a name gives are not always drawn. Like-named read-outs stand apart in the source and are kept apart here.

Legend:
[1] = target: T1, wild type human RORγt ligand binding domain (RORyt LBD) (Homo sapiens, UniProt P51449); assay: RORγt ThermoFluor assay (thermal shift, binding affinity KD)
T1 construct: His-tag (N); TurboTEV protease cleavage site (ENLYFQG) (N); made in house; host or cells: E. coli (pHIS1, modified pET vector)
T1 sequence (P51449 258-518): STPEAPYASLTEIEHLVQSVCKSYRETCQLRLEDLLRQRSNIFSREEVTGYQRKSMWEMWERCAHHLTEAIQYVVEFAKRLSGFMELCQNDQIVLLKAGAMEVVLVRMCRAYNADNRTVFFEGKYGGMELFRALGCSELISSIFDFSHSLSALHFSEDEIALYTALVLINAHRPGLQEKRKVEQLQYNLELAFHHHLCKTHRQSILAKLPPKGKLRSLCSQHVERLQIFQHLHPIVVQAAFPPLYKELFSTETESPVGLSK

[2] = target: T2, wild type human RORγt LBD (Homo sapiens, UniProt P51449); assay: RORγt (LBD) Reporter Assay (GAL4-luciferase, HEK293T cells); assay type: cell-based; settings: for RORγt (LBD) Reporter Assay, % inhibition @ 6 µM: 6 µM compound concentration; for inhibition at 6 µM: HEK-293T, read-out: RORγt (LBD) Reporter Assay, % inhibition @ 6 µM, 6 µM compound concentration
T2 construct: expressed in transfected cells; host or cells: HEK293T
T2 sequence (P51449 258-518): T1 sequence (P51449 258-518)

[3] = HEK293T cells, value after the comma with ∼, > or < could not be included in the average

Row | Compound | Kd [1] | RORγt (LBD) Reporter Assay, % inhibition @ 6 µM ([2]; 6 µM) | IC50 [2, 3] | inhibition at 6 µM [2] | IC50 ([2]; HEK293T cells) | inhibition at 6 µM ([2]; HEK293T cells) | RORγt (LBD) Reporter Assay, % inhibition @ 6 µM ([2]; HEK293T cells, 6 µM) | RORγt (LBD) Reporter Assay, % inhibition @ 6 µM [2]
1 | COc1nc2ccc(C(O)(c3ccc(C#N)cc3)c3cncn3C)cc2c(Cl)c1Cc1ccc(C(F)(F)F)nc1 (single isomer, unassigned) [Example 38c, 4-((4-Chloro-2-methoxy-3-((6-(trifluoromethyl)pyridin-3-yl)methyl)quinolin-6-yl)(hydroxy)(1-methyl-1H-imidazol-5-yl)methyl)benzonitrile] | 5.2 nM | 98% | 14 nM | – | – | – | – | –
2 | COc1c(Cc2ccccc2)c(C(F)(F)F)nc2ccc(C(O)(c3ccccn3)c3cncn3C)cc12 (racemic) [Example 98a, (3-Benzyl-4-methoxy-2-(trifluoromethyl)quinolin-6-yl)(1-methyl-1H-imidazol-5-yl)(pyridin-2-yl)methanol•TFA] | 590 nM | – | 830 nM | 101% | – | – | – | –
3 | Cc1ccc(C(O)(c2ccc3nc(N4CCC4)c(Cc4ccc(-n5cccn5)cc4)c(Cl)c3c2)c2cnnn2C)c(C)n1 (stereo not drawn) [Example 141a, {2-Azetidin-1-yl-4-chloro-3-[4-(1H-pyrazol-1-yl)benzyl]quinolin-6-yl}(2,6-dimethylpyridin-3-yl)(1-methyl-1H-1,2,3-triazol-5-yl)methanol] | 11000 nM | – | – | – | > 6000 nM | 42% | – | –
4 | Cn1cncc1C(O)(c1ccc2nc(Cl)c(Cc3ccc(-n4cccn4)cc3)c(Cl)c2c1)c1ncccn1 (stereo not drawn) [Example 130, {2,4-Dichloro-3-[4-(1H-pyrazol-1-yl)benzyl]quinolin-6-yl}(1-methyl-1H-imidazol-5-yl)pyrimidin-2-ylmethanol.TFA] | 640 nM | – | – | – | 510 nM | 94% | – | –
5 | COc1nc2ccc(C(O)(c3ccc(F)cc3)c3cncn3C)cc2c(Cl)c1Cc1ccc(-n2cccn2)cc1 (single isomer, unassigned) [Example 160c, (3-(4-(1H-Pyrazol-1-yl)benzyl)-4-chloro-2-methoxyquinolin-6-yl)(4-fluorophenyl)(1-methyl-1H-imidazol-5-yl)methanol] | 12 nM | – | – | – | 47 nM | – | 98% | –
6 | Cc1cc(C(O)(c2ccc(C(F)(F)F)nc2)c2cncn2C)cc2c(Cl)c(Cc3ccc(-n4cccn4)cc3)c(N3CCC3)nc12 (stereo not drawn) [Example 137a, {2-Azetidin-1-yl-4-chloro-8-methyl-3-[4-(1H-pyrazol-1-yl)benzyl]quinolin-6-yl}(1-methyl-1H-imidazol-5-yl)[6-(trifluoromethyl)pyridin-3-yl]methanol] | 9 nM | – | – | – | 170 nM | 97% | – | –
7 | COc1nc2ccc(C(O)(c3ccc(C)nc3C)c3cnnn3C)cc2c(Cl)c1Cc1ccc(-n2cncn2)cc1 (single isomer, unassigned) [Example 22c, (3-(4-(1H-1,2,4-Triazol-1-yl)benzyl)-4-chloro-2-methoxyquinolin-6-yl)(2,6-dimethylpyridin-3-yl)(1-methyl-1H-1,2,3-triazol-5-yl)methanol] | 2 nM | 98% | 11 nM | – | – | – | – | –
8 | 3-((4-Chloro-6-((4-chlorophenyl)(hydroxy)(1-methyl-1H-imidazol-5-yl)methyl)-2-methoxyquinolin-3-yl)methyl)benzonitrile•TFA [Example 70] | 120 nM | – | 430 nM | – | – | – | – | 94%
9 | COc1nc2ccc(C(O)(c3ccc(C)nc3C)c3cnnn3C)cc2c(Cl)c1Cc1ccc(S(C)(=O)=O)cc1 (single isomer, unassigned) [Example 117b, (4-Chloro-2-methoxy-3-(4-(methylsulfonyl)benzyl)quinolin-6-yl)(2,6-dimethylpyridin-3-yl)(1-methyl-1H-1,2,3-triazol-5-yl)methanol] | 1300 nM | – | – | – | ~4000 nM | 88% | – | –
10 | Cc1cc(C(O)(c2ccc(Cl)cc2)c2cncn2C)cc2c(Cl)c(Cc3ccc(-n4cccn4)cc3)c(S(C)(=O)=O)nc12 (stereo not drawn) [Example 142, {4-Chloro-8-methyl-2-(methylsulfonyl)-3-[4-(1H-pyrazol-1-yl)benzyl]quinolin-6-yl}(4-chlorophenyl)(1-methyl-1H-imidazol-5-yl)methanol] | 1500 nM | – | – | – | 1600 nM | 87% | – | –
11 | COc1nc2ccc(C(O)(c3ccc(F)cc3)C3CCN(C(C)=O)CC3)cc2c(Cl)c1Cc1ccc(-n2cccn2)cc1 (single isomer, unassigned) [Example 157c, 1-(4-((3-(4-(1H-Pyrazol-1-yl)benzyl)4-chloro-2-methoxyquinolin-6-yl)(4-fluorophenyl)(hydroxy)methyl)piperidin-1-yl)ethanone] | 110 nM | – | – | – | 160 nM | – | 99% | –
12 | COc1nc2ccc(C(O)(c3sc(C)nc3C)c3cnnn3C)cc2c(Cl)c1Cc1ccc(-n2cccn2)cc1 (single isomer, unassigned) [Example 21b, (3-(4-(1H-Pyrazol-1-yl)benzyl)-4-chloro-2-methoxyquinolin-6-yl)(2,4-dimethylthiazol-5-yl)(1-methyl-1H-1,2,3-triazol-5-yl)methanol] | 22 nM | – | 130 nM | 99% | – | – | – | –
13 | COc1nc2ccc(C(N)(c3ccc(C(F)(F)F)nc3)c3cncn3C)cc2c(Cl)c1Cc1cc2ccccc2s1 (single isomer, unassigned) [Example 71b, (3-(Benzo[b]thiophen-2-ylmethyl)-4-chloro-2-methoxyquinolin-6-yl)(1-methyl-1H-imidazol-5-yl)(6-(trifluoromethyl)pyridin-3-yl)methanamine] | 32 nM | – | 230 nM | 96% | – | – | – | –
14 | COc1nc2ccc(C(O)(c3ccc(C#N)cc3)c3cncn3C)cc2c(C#N)c1Cc1ccc(-n2cncn2)cc1 (single isomer, unassigned) [Example 15c, 3-(4-(1H-1,2,4-Triazol-1-yl)benzyl)-6-((4-cyanophenyl)(hydroxy)(1-methyl-1H-imidazol-5-yl)methyl)-2-methoxyquinoline-4-carbonitrile] | 17 nM | 97% | 28 nM | – | – | – | – | –
15 | CCCCc1nc2ccc(C(O)(c3cccnc3)c3cccc(F)c3)cc2c(Cl)c1Cc1ccc(-n2cccn2)cc1 (stereo not drawn) [Example 60, (3-(4-(1H-Pyrazol-1-yl)benzyl)-2-butyl-4-chloroquinolin-6-yl)(3-fluorophenyl)(pyridin-3-yl)methanol•TFA] | 3100 nM | – | 620 nM and ~2000 nM | 83% | – | – | – | –
16 | COc1nc2ccc(C(O)(c3cnnn3C)C3CCOCC3)cc2c(Cl)c1Cc1ccc(C(F)(F)F)cc1 (single isomer, unassigned) [Example 85b, (4-Chloro-2-methoxy-3-(4-(trifluoromethyl)benzyl)quinolin-6-yl)(1-methyl-1H-1,2,3-triazol-5-yl)(tetrahydro-2H-pyran-4-yl)methanol] | 0.31 nM | – | 1.3 nM | 99% | – | – | – | –
17 | Cc1ccc(C(O)(c2ccc3nc(N4CCC4)c(Cc4ccc(-n5cccn5)cc4)c(Cl)c3c2)c2cnnn2C)c(C)n1 (single isomer, unassigned) [Example 141b, {2-Azetidin-1-yl-4-chloro-3-[4-(1H-pyrazol-1-yl)benzyl]quinolin-6-yl}(2,6-dimethylpyridin-3-yl)(1-methyl-1H-1,2,3-triazol-5-yl)methanol] | 17000 nM | – | – | – | > 6000 nM | – | 20% | –
